Assay results: ChEMBL document CHEMBL1201862, “PubChem BioAssay data set” (2004)
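Tested at 5 concentrations; 48 h exposure; 96-well plates; endpoints linearly interpolated, else capped at highest concentration. GI50 = concentration required for 50% inhibition of growth.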 Calls of active or inactive are those of the source. No stated cut-off is given here; in the data, active = GI50 up to about 1.1 µM and inactive = higher.

Tests used:
Assay in all cases: NCI anticancer screen, dose series, 48 h
RPMI-8226 = system: RPMI-8226
UACC-257 = system: UACC-257
SK-MEL-5 = system: SK-MEL-5
SN12C = system: SN12C
ACHN = system: ACHN
SK-MEL-2 = system: SK-MEL-2
M14 = system: M14
OVCAR-3 = system: OVCAR-3
SK-OV-3 = system: SK-OV-3
SF-295 = system: SF-295
NCI-H522 = system: NCI-H522
SF-268 = system: SF-268
UACC-62 = system: UACC-62
CAKI-1 = system: CAKI-1
K562 = system: K562
Malme-3M = system: Malme-3M
SNB-75 = system: SNB-75
HOP-92 = system: HOP-92

Measured: GI50

O=[N+]([O-])c1cc([N+](=O)[O-])c(/C=C/c2ccc(Cl)c(Cl)c2)cc1/C=C/c1ccc(Cl)c(Cl)c1
inactive: RPMI-8226 19.3 µM | UACC-257 23.4 µM | SK-MEL-5 18.9 µM | SN12C 21.2 µM | ACHN 22.5 µM | SK-MEL-2 24.4 µM | M14 23.1 µM | OVCAR-3 17.5 µM | SK-OV-3 64.6 µM | SF-295 25.6 µM | NCI-H522 21.5 µM | SF-268 25.8 µM | UACC-62 27.5 µM | CAKI-1 31.4 µM | K562 27.7 µM | Malme-3M 25.2 µM | SNB-75 29 µM

COC(=O)c1csnn1
inactive: RPMI-8226 > 100 µM | UACC-257 > 100 µM | SK-MEL-5 > 100 µM | SN12C > 100 µM | ACHN > 100 µM | M14 > 100 µM | OVCAR-3 > 100 µM | SK-OV-3 > 100 µM | SF-295 > 100 µM | NCI-H522 > 100 µM | SF-268 > 100 µM | UACC-62 > 100 µM | K562 > 100 µM | Malme-3M > 100 µM

COc1ccc(CC2c3c(cc(OC)c(OC)c3OC)CCN2C)cc1OC (stereo unspecified)
inactive: RPMI-8226 > 100 µM | UACC-257 > 100 µM | SK-MEL-5 > 100 µM | SN12C > 100 µM | ACHN > 100 µM | SK-MEL-2 > 100 µM | M14 > 100 µM | OVCAR-3 > 100 µM | SF-295 63.7 µM | NCI-H522 > 100 µM | SF-268 > 100 µM | CAKI-1 > 100 µM | K562 > 100 µM | Malme-3M > 100 µM | SNB-75 > 100 µM

CC(=O)NC(CCCNC(=O)NCCCl)C(=O)NCc1ccccc1 (stereo unspecified)
inactive: RPMI-8226 > 100 µM | UACC-257 > 100 µM | HOP-92 > 100 µM | SK-MEL-5 > 100 µM | SN12C > 100 µM | ACHN > 100 µM | SK-MEL-2 > 100 µM | M14 > 100 µM | OVCAR-3 > 100 µM | SF-295 > 100 µM | NCI-H522 > 100 µM | SF-268 > 100 µM | UACC-62 > 100 µM | CAKI-1 > 100 µM | K562 > 100 µM | Malme-3M > 100 µM | SNB-75 > 100 µM

CN1C/C(=C\C=C\c2ccccc2)C(=O)/C(=C/C=C/c2ccccc2)C1
inactive: RPMI-8226 > 100 µM | UACC-257 > 100 µM | SK-MEL-5 > 100 µM | SN12C > 100 µM | ACHN > 100 µM | SK-MEL-2 > 100 µM | M14 > 100 µM | OVCAR-3 > 100 µM | SK-OV-3 > 100 µM | SF-295 > 100 µM | NCI-H522 54 µM | SF-268 > 100 µM | UACC-62 > 100 µM | CAKI-1 > 100 µM | K562 > 100 µM | Malme-3M > 100 µM | SNB-75 > 100 µM

C/C(=N\NC(C)(C)C)c1sc(-c2nc(C)c(/C(C)=N/NC(C)(C)C)s2)nc1C
inactive: RPMI-8226 > 100 µM | UACC-257 > 100 µM | HOP-92 > 100 µM | SK-MEL-5 > 100 µM | SN12C > 100 µM | ACHN > 100 µM | M14 > 100 µM | OVCAR-3 > 100 µM | SK-OV-3 > 100 µM | SF-295 > 100 µM | NCI-H522 > 100 µM | SF-268 > 100 µM | UACC-62 > 100 µM | CAKI-1 > 100 µM | K562 > 100 µM | Malme-3M > 100 µM | SNB-75 8.32 µM

CC1=C(C(=O)CC(=O)C(=O)Nc2cc(C)ccc2C)Sc2ccccc2N1
inactive: RPMI-8226 > 100 µM | UACC-257 > 100 µM | HOP-92 85.7 µM | SK-MEL-5 > 100 µM | SN12C > 100 µM | ACHN > 100 µM | SK-MEL-2 > 100 µM | M14 > 100 µM | OVCAR-3 > 100 µM | SK-OV-3 > 100 µM | SF-295 32 µM | NCI-H522 > 100 µM | SF-268 > 100 µM | UACC-62 > 100 µM | CAKI-1 > 100 µM | K562 > 100 µM | Malme-3M > 100 µM

CN(c1ccccc1)C1C(=O)N(c2ccccc2)C1/C=C/c1ccccc1 (stereo unspecified)
inactive: RPMI-8226 > 100 µM | UACC-257 > 100 µM | HOP-92 > 100 µM | SK-MEL-5 > 100 µM | SN12C > 100 µM | ACHN > 100 µM | SK-MEL-2 > 100 µM | OVCAR-3 > 100 µM | SK-OV-3 > 100 µM | SF-295 > 100 µM | NCI-H522 > 100 µM | SF-268 > 100 µM | UACC-62 72.6 µM | CAKI-1 > 100 µM | Malme-3M > 100 µM | SNB-75 > 100 µM

CCOC(C[C@H](O)[C@H]1COC(=S)S1)OCC
inactive: RPMI-8226 > 100 µM | UACC-257 > 100 µM | SK-MEL-5 > 100 µM | SN12C > 100 µM | ACHN > 100 µM | M14 > 100 µM | OVCAR-3 > 100 µM | SK-OV-3 > 10 µM | SF-295 > 100 µM | NCI-H522 > 100 µM | SF-268 > 100 µM | UACC-62 > 100 µM | Malme-3M > 100 µM

O=C(c1ccccc1)[C@H]1Nc2ccc(Cl)cc2C2c3ccccc3CC21 (stereo partly specified)
inactive: RPMI-8226 > 100 µM | UACC-257 18.5 µM | SK-MEL-5 21.3 µM | SN12C 83.2 µM | ACHN 45.2 µM | SK-MEL-2 67 µM | M14 31.6 µM | OVCAR-3 21 µM | SF-295 18.5 µM | NCI-H522 95.3 µM | SF-268 > 100 µM | UACC-62 > 10 µM | CAKI-1 > 100 µM | K562 25.6 µM | Malme-3M > 10 µM | SNB-75 20.8 µM

N#Cc1ccc(/C=N\N2C(=O)c3ccccc3C2=O)cc1
inactive: RPMI-8226 > 100 µM | UACC-257 > 100 µM | HOP-92 > 100 µM | SK-MEL-5 > 100 µM | SN12C > 100 µM | ACHN > 100 µM | SK-MEL-2 > 100 µM | M14 > 100 µM | OVCAR-3 > 100 µM | SF-295 > 100 µM | SF-268 > 100 µM | UACC-62 > 100 µM | CAKI-1 > 100 µM | K562 > 100 µM | Malme-3M > 100 µM | SNB-75 > 100 µM

CCCn1c(SCCSc2c3ccccc3c(-c3nc(F)nc(F)n3)n2CCC)c2ccccc2c1-c1nc(F)nc(F)n1
inactive: RPMI-8226 27.3 µM | UACC-257 > 100 µM | HOP-92 > 100 µM | SN12C > 100 µM | ACHN 82.6 µM | SK-MEL-2 > 100 µM | M14 > 100 µM | OVCAR-3 > 100 µM | SK-OV-3 > 100 µM | SF-295 > 100 µM | NCI-H522 > 100 µM | SF-268 > 100 µM | UACC-62 > 100 µM | CAKI-1 > 100 µM | K562 > 100 µM | Malme-3M > 100 µM | SNB-75 > 100 µM

O=C1C=C(Nc2ccccc2C(=O)CC(=O)C(=O)Nc2ccc(Cl)cc2)c2ccccc2C1=O
inactive: RPMI-8226 3.21 µM | UACC-257 8.83 µM | HOP-92 21.9 µM | SK-MEL-5 4.32 µM | SN12C 12.6 µM | ACHN 18.2 µM | SK-MEL-2 17.2 µM | M14 10.9 µM | OVCAR-3 2.39 µM | SK-OV-3 26.2 µM | NCI-H522 7.85 µM | SF-268 14.2 µM | UACC-62 13.3 µM | CAKI-1 29.8 µM | K562 3.24 µM | Malme-3M 11.8 µM | SNB-75 17.1 µM

COc1cc(=O)oc(/C=C/CO)c1C
inactive: UACC-257 > 100 µM | HOP-92 > 100 µM | SK-MEL-5 > 100 µM | SN12C > 100 µM | ACHN > 100 µM | M14 > 100 µM | OVCAR-3 > 100 µM | SK-OV-3 > 100 µM | SF-295 > 100 µM | NCI-H522 28.9 µM | SF-268 > 100 µM | UACC-62 > 100 µM | CAKI-1 > 100 µM | K562 > 100 µM | Malme-3M > 100 µM | SNB-75 > 100 µM

CN1C/C(=C\c2ccco2)c2nc(N)nc(-c3ccco3)c2C1
inactive: RPMI-8226 31.7 µM | UACC-257 > 100 µM | SK-MEL-5 72.8 µM | SN12C > 100 µM | ACHN > 100 µM | SK-MEL-2 > 100 µM | M14 > 100 µM | OVCAR-3 43.9 µM | SK-OV-3 > 100 µM | SF-295 > 100 µM | NCI-H522 > 100 µM | SF-268 > 100 µM | UACC-62 > 100 µM | CAKI-1 > 100 µM | K562 > 100 µM | Malme-3M > 100 µM | SNB-75 85.3 µM

C1=CC=C2NCCCCCC/N=C3\C=CC=CC=C3NCCc3cccc(c3)CC/N=C/2C=C1
inactive: RPMI-8226 7.45 µM | UACC-257 22.8 µM | HOP-92 23.7 µM | SN12C 29.7 µM | ACHN 33 µM | SK-MEL-2 26.9 µM | M14 11 µM | OVCAR-3 27.7 µM | SK-OV-3 25.5 µM | SF-295 16.9 µM | NCI-H522 16.9 µM | SF-268 31.7 µM | UACC-62 21.7 µM | CAKI-1 33.3 µM | K562 4.59 µM | Malme-3M 35.3 µM | SNB-75 21.3 µM

COc1ccc2nc3cc(Cl)ccc3c(Sc3ccccc3[N+](=O)[O-])c2c1
inactive: UACC-257 > 100 µM | HOP-92 90.2 µM | SK-MEL-5 > 100 µM | SN12C 28.1 µM | ACHN > 100 µM | SK-MEL-2 > 100 µM | M14 > 100 µM | OVCAR-3 > 100 µM | SK-OV-3 58.1 µM | SF-295 > 100 µM | NCI-H522 > 100 µM | SF-268 > 100 µM | UACC-62 > 100 µM | CAKI-1 > 100 µM | K562 > 100 µM | Malme-3M > 100 µM | SNB-75 16.9 µM
